From US4324894A, “Aminoisoquinoline derivatives” (Egyt Gyogyszervegyeszeti Gyar, priority 1979, dated 1982) come the findings set out here.

Where only a bound is given, the exact number is not on record here.

Holding throughout (assay type): in vivo
The nature of data set [1]: Acute toxicity on mice, oral. Particulars: mouse, in vivo, po, mice weighing 18 to 22 g, orally. Here is the method: (§1) The acute toxicity of the aminoisoquinoline derivatives of the formula (I) were determined on mice weighing 18 to 22 g. The compounds were administered orally. The LD50 values are summarized in Table I. Toxicity data for meprobamate [2-methyl-2-propylpropane-1,3-dioldicarbamate] and phenylbutazon [4-butyl-1,2-diphenylpyrazolidine-3,5-dione] used as reference substances in the pharmacological tests are also given in Table I.

In data set [2] the test system is narcosis developed with hexobarbital. Put plainly: Potentiation of the narcosis developed with hexobarbital. Particulars: mice; for ED50: Mus musculus, po; for Therapeutic index: p.o., corresponds to LD50/ED50. Here is the method: The narcosis potentiating effects of the novel compounds having the formula (I) were studied by the method of Kaergaard and al., Arch. Int. […] The compounds studied were administered orally to groups of mice consisting of 6 animals each. To the control group, 20 ml/kg of 0.9 percent sodium chloride solution was orally administered. Then, the animals were treated with an intravenous dosage of 40 mg/kg of hexobarbital/5-(1-cyclohexenyl)-1,5-dimethylbarbituric acid/. According to our evaluation method, a 150 percent prolongation of sleeping period in relation to the control group was regarded as a positive response.
The number of animals with positive responses was related to the total number of animals treated.

For another data set, the system named is mice. Put plainly: Acute toxicity on mice, oral. As to conditions: mice weighing 18 to 22 g, orally. Here is the method: as §1
[3] abbreviates: orally, hexobarbital 40 mg/kg intravenous, positive response = 150 percent prolongation of sleeping period in relation to control.

Take `Cc1c(N)nc(N2CCOCC2)c2ccccc12` [Example 1, 1-morpholinyl-3-amino-4-methylisoquinoline]: the LD50 – broadly, the dose expected to kill half of the subjects tested – in data set [1] came to 2000 mg/kg. In addition, the ED50 (as a rule, the midpoint of the dose-response relation) in data set [2] (setting [3]) turned out to be 100 mg/kg. In data set [2], the Therapeutic index is on record as 20.
The like results for `Cc1c(N)nc(N2CCN(c3ccccn3)CC2)c2ccccc12` [Example 2, 1-/4'-(2"-pyridyl)-1'-piperazinyl/-3-amino-4-methylisoquinoline] were, in that order, 2000 mg/kg, 74 mg/kg and 27.
In turn, `Cc1c(N)nc(N2CCN(c3ccccn3)CC2)c2ccccc12` [Example 3, 1-/4'-(2"-pyridyl)-1'-piperazinyl/-3-amino-4-methylisoquinoline bis/ethanesulfonate/] registered an LD50 p.o. in the data set on mice of 2000 mg/kg. For the same molecule, the ED50 p.o. in data set [2] (setting [3]) was found to be 140 mg/kg. In addition, the Therapeutic index in data set [2] turned out to be 14.3.
In data set [1], `Nc1cc2ccccc2c(N2CCOCC2)n1` [Example 4, 1-morpholinyl-3-aminoisoquinoline] displayed an LD50 of more than 2000 mg/kg.
Regarding `Nc1cc2ccccc2c(N2CCOCC2)n1` [Example 5, 1-morpholinyl-3-aminoisoquinoline ethanesulfonate], the LD50 p.o. in the data set with mice stood at 2000 mg/kg.
On to `Nc1cc2ccccc2c(N2CCN(c3ccccn3)CC2)n1` [Example 6, 1-/4'-(2"-pyridyl)-piperazin-1'-yl/-3-aminoisoquinoline], for which the LD50 in data set [1] turned out to be 2000 mg/kg. Besides, in data set [2] (setting [3]), the median effective dose (ED50) came to 140 mg/kg. Also, the Therapeutic index in data set [2] turned out to be 14.3.
For the molecule `CCCC(C)(COC(N)=O)COC(N)=O` [Meprobamate, 2-methyl-2-propylpropane-1,3-dioldicarbamate, reference compound], the ED50 in data set [2] (setting [3]) came to 260 mg/kg. For the same molecule, in data set [2], the Therapeutic index was found to be 4.2.
